Results: patent US7033829B2, “Method to inhibit cell growth using oligonucleotides” (Trustees of Boston University, priority 2000, dated 2006)
Oligonucleotides are written 5' to 3', each unit as a sugar letter and its base; * is a phosphorothioate linkage, no mark a phosphodiester; rarer units and linkages stand in square brackets, end groups in braces. Plain capitals give the bases only. d = 2'-deoxy (DNA); {P} = phosphate

Key:
Jurkat cells = assay: TUNEL assay in Jurkat cells; format: cell-based, human; conditions: 40 μM; 72 hours
Experimental: Cells were plated at a density of 180,000 cells/ml in RPMI 1640 medium supplemented with 3% FBS. Cells were treated with 40 μM of either of the oligonucleotides for 72 hours. Cells were then collected, washed and fixed for 30 minutes in 4% paraformaldehyde and then permeabilized with 0.1% Triton X-100 for 2 minutes. The TUNEL assay was carried out with components and instructions of the In Situ Cell Death Detection Kit using fluorescein-labeled dUTP from Boehringer Mannheim. TUNEL-positive cells were detected by FACS analysis and confocal microscopy. […] Uptake of the oligonucleotides was assessed in 5–10 μm sections with a Carl Zeiss LSM 510 confocal laser microscope. […] Fluorescence was measured on the FL-1 channel. […] Antibody Ab-6 (DO-1 clone, Oncogene Research Products, Cambridge, Mass.) detected p53; antibody KH95 (Santa Cruz Biotechnology, Inc., Santa Cruz, Calif.) detected E2F1; antibody Ab-4 (Oncogene Research products) detected p73. Phospho-p53 (serine 15) was detected using the #9284 polyclonal antibody and phospho-p95/Nbs1 (serine 343) was detected by a phospho-p95/Nbs1-specific polyclonal antibody, both antibodies from Cell Signaling Technology (Beverly, Mass.). p95/Nbs1 antibody (#NB-100-143, Novus Biologicals, Littleton, Colo.) and an actin antibody (I-19, Santa Cruz Biotechnology, Santa Cruz, Calif.) were also used. […]

caspase-3 = assay: Caspase-3 activity in Jurkat cells; format: cell-based, human; conditions: 40 μM
Experimental: Duplicate cultures of Jurkat cells were cultured and treated with oligonucleotides as described above. At 48, 72 and 96 hours of treatment, cells were collected by centrifugation, washed and then the pellet lysed by repeated cycles of freeze-thawing. The lysate was then clarified by centrifugation and the supernatant used for protein analysis and Caspase-3 activity assay using the components and instructions of the Colorimetric CaspACE Assay System from Promega (Madison, Wis.). The assay uses the substrate Ac-DEVD-pNA and calorimetrically measures release of free pNA. Caspase activity is expressed as pmol of pNA produced/hour/μg protein.
Apoptosis was also detected by the DNA end-labeling TUNEL assay. Jurkat cells were treated with 40 μM oligonucleotides for 72 hours. Cells were then collected and the TUNEL assay was carried out. […] The activation of caspase-3, another marker of apoptosis, was also examined. Duplicate cultures of Jurkat cells were cultured and treated with oligonucleotides as described above for 48, 72 and 96 hours and caspase-3 activity was measured. The activity of caspase-3 was 50% higher after 48 hours of treatment with the telomere overhang homolog, compared to controls, and 3–4 fold higher in these cells at 72 and 96 hours (FIG. 27). Thus, the oligonucleotide homologous to the telomere 3′ overhang specifically induces an S phase arrest and apoptosis in these cells.

p53 = p53 immunoperoxidase staining in fibroblasts; format: cell-based, human; conditions: normal neonatal fibroblasts; 100 μM; within 24 hours
Experimental: The effect of pTpT on the level and intracellular distribution of p53 in normal neonatal fibroblasts was examined by immunoperoxidase staining using a p53-specific monoclonal antibody (mAb 421, Oncogene, Cambridge, Mass.). Preconfluent cultures were treated with either 100 μM pTpT or diluent for 24 hours before cell staining. Cells were first fixed for one minute in Histochoice fixative (Amresco, Solon, Ohio) followed by a five-minute rinse in PBS. p53 was detected using the Vectastain Elite ABC kit (Vector Laboratories, Burlingame, Calif.) and the p53-specific monoclonal antibody mAb 421.

[1] = test system: Human melanoma cell lines CRL 1424, Malma, Sk Mel 2, and Sk Mel 28; assay: Cell yield of human melanoma cell lines; format: cell-based; conditions: 100 μM; one week; any of four cell lines
Experimental: Human melanoma cell lines CRL 1424, Malma, Sk Mel 2, and Sk Mel 28 were obtained from the American Type Culture Collection (ATCC). The cell lines were maintained in DME+2% calf serum, and dosed with either water (diluent) with DME, or 100 μM T2 in DME. One week after dosage, cells were collected and counted by Coulter™ counter.

[2] = test system: Human cervical carcinoma cells (HeLa cells); assay: Cell growth of HeLa cells; format: cell-based; conditions: 100 μM; 1, 4 and 6 days after dosage
Experimental: Human cervical carcinoma cells (HeLa cells) were maintained in DME+10% calf serum and dosed with either water (diluent) or 100 μM T2. Cells were collected 1, 4 and 6 days after dosage and counted by Coulter™ counter.

Substance	TUNEL fluorescence (FACS, confocal microscopy) (Jurkat cells)	caspase-3 activity higher compared to controls (caspase-3; 72 and 96 hours)	caspase-3 activity higher compared to controls (caspase-3; 48 hours)	intranuclear p53 (p53)	cell yields [1]	cell growth rate [2]
pGTTAGGGTTAG (DNA {P}-dGdTdTdAdGdGdGdTdTdAdG) [SEQ ID NO: 5]	an increase in fluorescence due to end-label incorporation	3–4 fold	50%	–	–	–
thymidine dinucleotide [pTpT]	–	–	–	an increase in intranuclear p53	marked decreases in cell yields	marked decreases in cell growth rate
